In patent US20180243273A1, “Composition for Intravesical Administration for Treating Bladder Pain” (priority 2017, published 2018):

How the values were obtained:
Format in all cases: physicochemical
[1] = Solubility and impurities of API with solubility enhancing excipients in citrate or phosphate buffer pH 4.5; conditions: for solubility: thermodynamic from solid
Experimental: The solubility of the API was assessed in different buffers together with different excipients. Batches containing different amounts of non-micronized API (i.e. 1 mg, 4 mg, 10 mg or 15 mg) in 100 g buffer were manufactured in order to have saturated solutions. Two different buffers were chosen (citrate buffer and phosphate buffer). […] In order to improve the poor solubility of the API, different solubility enhancing excipients were incorporated in the buffer systems in a concentration range of 0.1-2 wt.-%:
First, buffers were prepared according to Ph. Eur. After pH adjustment, the corresponding excipient was dissolved in the buffer. 1 mg of the API was added to the excipient containing buffer (i.e. 100 g) and stirred. If the API was dissolved completely, another 9 mg were added to a final amount of 10 mg API in […] buffer/excipient mixture. The resulting compositions were stirred overnight prior to filtration through a 0.45 μm filter and analysis and contained 1 mg or 10 mg API, respectively. The following compositions were prepared and the following solubility values were achieved: […]

[2] = Stability after autoclaving; conditions: 121° C. and 2 bar for 20 min
Experimental: The stability of the pharmaceutical composition was assessed by means of autoclaving experiments, where the compositions were treated at 121° C. and 2 bar for 20 min.
Autoclaving experiments were performed with the aim to evaluate the stability of API in defined buffer systems and excipients. Clear glass covered by aluminium foil was chosen as primary packaging as it provided sufficient light protection for the material and was expected to provide a smaller risk of interaction than amber glass. The batches were autoclaved at 121° C. and 2 bar for 20 min, following analysis of impurity profiles.

[3] = Preliminary stability study of API intravesical solution; conditions: for Assay / Impurities: vitamin E TPGS 0.5%, API 40 μg/mL, Asc. 1%
Experimental: Two dose strengths were specified: 40 μg/mL and 150 μg/mL API. These concentrations were defined in order to stay below 80% of the saturated solubility values obtained during previous experiments. To enable dissolution of the API, 0.5 wt.-% and 2 wt.-% vitamin E TPGS were used for 40 μg/mL and 150 μg/mL API, respectively (24 h stirring). The compositions were treated with nitrogen and stored at 5° C., 25° C. and 40° C.

**Q.** With `CN(C)[C@]1(c2cccc(F)c2)CC[C@]2(CC1)c1[nH]c3ccccc3c1CCN2C(=O)/C=C/c1ccccc1` [API, cis-(E)-4-(3-fluorophenyl)-2′,3′,4′,9′-tetrahydro-N,N-dimethyl-2′-(1-oxo-3-phenyl-2-propenyl)-spiro[cyclohexane-1,1′[1H]-pyrido[3,4-b]indol]-4-amine] as the molecule, how does the Sum of impurities ([1]; citrate buffer pH 4.5, 1 wt.-% Cremophor ® RH 40, 1 mg API in 100 g buffer) read?
**A.** 0.92 % (a/a)

**Q.** And the Sum of impurities ([1]; citrate buffer pH 4.5, 1 wt.-% Gelucire ® 44/14, 10 mg API in 100 g buffer)?
**A.** 25.91 % (a/a)

**Q.** What about the Sum of impurities ([1]; citrate buffer pH 4.5, 1 wt.-% Labrasol ®, 10 mg API in 100 g buffer) of the same molecule?
**A.** 19.81 % (a/a)

**Q.** What about the Sum of impurities ([1]; citrate buffer pH 4.5, 1 wt.-% PEG 400, 10 mg API in 100 g buffer) of the same molecule?
**A.** 0 % (a/a)

**Q.** What about the Sum of impurities ([1]; citrate buffer pH 4.5, 1 wt.-% Propylene glycol, 10 mg API in 100 g buffer) of the same molecule?
**A.** 0 % (a/a)

**Q.** What about the Sum of impurities ([1]; citrate buffer pH 4.5, 1 wt.-% SLS, 1 mg API in 100 g buffer) of the same molecule?
**A.** 5.52 % (a/a)

**Q.** And the Sum of impurities ([1]; citrate buffer pH 4.5, 1 wt.-% SLS, 10 mg API in 100 g buffer)?
**A.** 3.47 % (a/a)

**Q.** And the Sum of impurities ([1]; citrate buffer pH 4.5, 1 wt.-% Solutol ® HS 15, 1 mg API in 100 g buffer)?
**A.** 0.53 % (a/a)

**Q.** What about the Sum of impurities ([1]; citrate buffer pH 4.5, 1 wt.-% Tween ® 80, 1 mg API in 100 g buffer) of the same molecule?
**A.** 1.1 % (a/a)

**Q.** What about the Sum of impurities ([1]; citrate buffer pH 4.5, 1 wt.-% vitamin E TPGS, 10 mg API in 100 g buffer) of the same molecule?
**A.** 5.71 % (a/a)

**Q.** And the solubility ([1]; citrate buffer, pH 4.5, aqueous with cosolvent or surfactant or cyclodextrin, citrate buffer pH 4.5, 1 wt.-% Cremophor ® RH 40, 1 mg API in 100 g buffer)?
**A.** 7.18 µg/mL

**Q.** What about the solubility ([1]; citrate buffer, pH 4.5, aqueous with cosolvent or surfactant or cyclodextrin, citrate buffer pH 4.5, 1 wt.-% Gelucire ® 44/14, 10 mg API in 100 g buffer) of the same molecule?
**A.** 34.9 µg/mL

**Q.** And the solubility ([1]; citrate buffer, pH 4.5, aqueous with cosolvent or surfactant or cyclodextrin, citrate buffer pH 4.5, 1 wt.-% Labrasol ®, 10 mg API in 100 g buffer)?
**A.** 12.1 µg/mL

**Q.** And the solubility ([1]; citrate buffer, pH 4.5, aqueous with cosolvent or surfactant or cyclodextrin, citrate buffer pH 4.5, 1 wt.-% SLS, 1 mg API in 100 g buffer)?
**A.** 79.5 µg/mL

**Q.** And the solubility ([1]; citrate buffer, pH 4.5, aqueous with cosolvent or surfactant or cyclodextrin, citrate buffer pH 4.5, 1 wt.-% SLS, 10 mg API in 100 g buffer)?
**A.** 8.19 µg/mL

**Q.** And the solubility ([1]; citrate buffer, pH 4.5, aqueous with cosolvent or surfactant or cyclodextrin, citrate buffer pH 4.5, 1 wt.-% Solutol ® HS 15, 1 mg API in 100 g buffer)?
**A.** 7.95 µg/mL

**Q.** And the solubility ([1]; citrate buffer, pH 4.5, aqueous with cosolvent or surfactant or cyclodextrin, citrate buffer pH 4.5, 1 wt.-% Tween ® 80, 1 mg API in 100 g buffer)?
**A.** 7.93 µg/mL

**Q.** And the solubility ([1]; citrate buffer, pH 4.5, aqueous with cosolvent or surfactant or cyclodextrin, citrate buffer pH 4.5, 1 wt.-% vitamin E TPGS, 10 mg API in 100 g buffer)?
**A.** 76.4 µg/mL

**Q.** And the Sum of impurities ([1]; phosphate buffer pH 4.5, 1 wt.-% Cremophor ® RH 40, 1 mg API in 100 g buffer)?
**A.** 0.2 % (a/a)

**Q.** What about the Sum of impurities ([1]; phosphate buffer pH 4.5, 1 wt.-% Gelucire ® 44/14, 1 mg API in 100 g buffer) of the same molecule?
**A.** 17.48 % (a/a)

**Q.** And the Sum of impurities ([1]; phosphate buffer pH 4.5, 1 wt.-% Labrasol ®, 1 mg API in 100 g buffer)?
**A.** 5.91 % (a/a)

**Q.** And the Sum of impurities ([1]; phosphate buffer pH 4.5, 1 wt.-% PEG 400, 1 mg API in 100 g buffer)?
**A.** 11.7 % (a/a)

**Q.** And the Sum of impurities ([1]; phosphate buffer pH 4.5, 1 wt.-% Propylene glycol, 1 mg API in 100 g buffer)?
**A.** 38.22 % (a/a)

**Q.** And the Sum of impurities ([1]; phosphate buffer pH 4.5, 1 wt.-% SLS, 1 mg API in 100 g buffer)?
**A.** 22.55 % (a/a)

**Q.** What about the Sum of impurities ([1]; phosphate buffer pH 4.5, 1 wt.-% Solutol ® HS 15, 1 mg API in 100 g buffer) of the same molecule?
**A.** 0.2 % (a/a)

**Q.** And the Sum of impurities ([1]; phosphate buffer pH 4.5, 1 wt.-% Tween ® 80, 1 mg API in 100 g buffer)?
**A.** 0.52 % (a/a)

**Q.** And the Sum of impurities ([1]; phosphate buffer pH 4.5, 1 wt.-% vitamin E TPGS, 10 mg API in 100 g buffer)?
**A.** 1.87 % (a/a)

**Q.** What about the solubility ([1]; phosphate buffer, pH 4.5, aqueous buffer, phosphate buffer pH 4.5, 1 wt.-% PEG 400, 1 mg API in 100 g buffer) of the same molecule?
**A.** 0.83 µg/mL

**Q.** What about the solubility ([1]; phosphate buffer, pH 4.5, aqueous buffer, phosphate buffer pH 4.5, 1 wt.-% Propylene glycol, 1 mg API in 100 g buffer) of the same molecule?
**A.** 0.04 µg/mL

**Q.** And the solubility ([1]; phosphate buffer, pH 4.5, aqueous with cosolvent or surfactant or cyclodextrin, phosphate buffer pH 4.5, 1 wt.-% Cremophor ® RH 40, 1 mg API in 100 g buffer)?
**A.** 7.67 µg/mL

**Q.** And the solubility ([1]; phosphate buffer, pH 4.5, aqueous with cosolvent or surfactant or cyclodextrin, phosphate buffer pH 4.5, 1 wt.-% Gelucire ® 44/14, 1 mg API in 100 g buffer)?
**A.** 53.5 µg/mL

**Q.** And the solubility ([1]; phosphate buffer, pH 4.5, aqueous with cosolvent or surfactant or cyclodextrin, phosphate buffer pH 4.5, 1 wt.-% Labrasol ®, 1 mg API in 100 g buffer)?
**A.** 45.8 µg/mL

**Q.** What about the solubility ([1]; phosphate buffer, pH 4.5, aqueous with cosolvent or surfactant or cyclodextrin, phosphate buffer pH 4.5, 1 wt.-% SLS, 1 mg API in 100 g buffer) of the same molecule?
**A.** 1.68 µg/mL

**Q.** And the solubility ([1]; phosphate buffer, pH 4.5, aqueous with cosolvent or surfactant or cyclodextrin, phosphate buffer pH 4.5, 1 wt.-% Solutol ® HS 15, 1 mg API in 100 g buffer)?
**A.** 6.71 µg/mL

**Q.** And the solubility ([1]; phosphate buffer, pH 4.5, aqueous with cosolvent or surfactant or cyclodextrin, phosphate buffer pH 4.5, 1 wt.-% Tween ® 80, 1 mg API in 100 g buffer)?
**A.** 8.91 µg/mL

**Q.** What about the solubility ([1]; phosphate buffer, pH 4.5, aqueous with cosolvent or surfactant or cyclodextrin, phosphate buffer pH 4.5, 1 wt.-% vitamin E TPGS, 10 mg API in 100 g buffer) of the same molecule?
**A.** 256 µg/mL

**Q.** What about the “degradation of API after autoclaving” value ([2]; citrate buffer and SLS) of the same molecule?
**A.** highest degradation

**Q.** What about the “degradation of API after autoclaving” value ([2]; phosphate buffer and vitamin E TPGS) of the same molecule?
**A.** lowest degradation

**Q.** What about the “assay values over storage” value ([3]; all investigated compositions, 3 months, stored at 6° C. or 25° C.) of the same molecule?
**A.** remained stable

**Q.** And the assay over storage ([3]; stored at 40° C.)?
**A.** decreased considerably

**Q.** What about the Assay ([3]; 6° C., 1 m) of the same molecule?
**A.** 70.25 % L.S.

**Q.** What about the Impurities ([3]; 6° C., 1 m) of the same molecule?
**A.** 1.00 % (a/a)

**Q.** And the Assay ([3]; 6° C., 2 w)?
**A.** 70.56 % L.S.

**Q.** What about the Impurities ([3]; 6° C., 2 w) of the same molecule?
**A.** 0.57 % (a/a)

**Q.** What about the Assay ([3]; t = 0) of the same molecule?
**A.** 70.39 % L.S.

**Q.** What about the Impurities ([3]; t = 0) of the same molecule?
**A.** 0.57 % (a/a)
